Assay results published in ChEMBL document CHEMBL3085777, “Improved synthesis and in vitro evaluation of the cytotoxic profile of oxysterols oxidized at C4 (4α- and 4β-hydroxycholesterol) and C7 (7-ketocholesterol, 7α- and 7β-hydroxycholesterol) on cells of the central nervous system” (Eur J Med Chem, 2013).

What was measured:
[1] = Cytotoxicity against human SK-N-BE cells assessed as cell viability after 24 hrs by trypan blue-based cell counting method; assay type: functional; details: read-out: LD50 (the source's name)
[2] = Cytostatic activity against mouse 158N cells assessed as cell viability after 24 hrs by trypan blue-based cell counting method; details: read-out: LD50
[3] = Growth inhibition of BALB/cJRj mouse astrocytes/oligodendrocytes at 50 uM after 24 hrs by trypan blue-based cell counting method
[4] = Growth inhibition of human SK-N-BE cells after 24 hrs by trypan blue-based cell counting method; assay type: functional
C6 [5] = experiment: Cytostatic activity against rat C6 cells assessed as growth inhibition after 24 hrs by trypan blue-based cell counting method; assay type: functional; details: C6, 24 h
[6] = Cytotoxicity against BALB/cJRj mouse astrocytes/oligodendrocytes assessed as cell viability at 50 uM after 24 hrs by trypan blue-based cell counting method; details: for Activity: 24 h, 50 µM; for viability at 24 h, 50 µM: BALB/cJRj, astrocytes/oligodendrocytes, read-out: Activity
C6 [7] = experiment: Cytostatic activity against rat C6 cells assessed as cell viability after 24 hrs by trypan blue-based cell counting method; assay type: functional; details: C6, 24 h, read-out: LD50 (the source's name)
[8] = Cytostatic activity against mouse 158N cells assessed as growth inhibition after 24 hrs by trypan blue-based cell counting method
[9] = Growth inhibition of mouse 158N cells after 24 hrs by trypan blue-based cell counting method
[10] = Cytotoxicity against mouse 158N cells assessed as cell viability after 24 hrs by trypan blue-based cell counting method; details: read-out: LD50
C6 [11] = experiment: Cytotoxicity against rat C6 cells assessed as cell viability after 24 hrs by trypan blue-based cell counting method; assay type: functional; details: C6, 24 h, read-out: LD50 (the source's name)
C6 [12] = experiment: Growth inhibition of rat C6 cells after 24 hrs by trypan blue-based cell counting method; assay type: functional; details: C6, 24 h

Which CC50 [1] does the source give for `CC(C)CCC[C@@H](C)[C@H]1CC[C@H]2[C@@H]3CC=C4[C@H](O)[C@@H](O)CC[C@]4(C)[C@H]3CC[C@]12C` here?
The CC50 was over 160 µM.

And the CC50 at 24 h [2]?
Its CC50 at 24 h is over 160 µM.

What about the Activity [3] of the same compound?
Its Activity is “Non-toxic”.

What about the IC50 [4] of the same compound?
The IC50 was over 160 µM.

What about the IC50 (C6 [5]) of the same compound?
Its IC50 is at least 160 µM.

What about the Activity [6] of the same compound?
The Activity was “Non-toxic”.

And the CC50 (C6 [7])?
The CC50 was over 160 µM.

What about the IC50 [8] of the same compound?
Its IC50 is 40 µM.

What does the source list for `CC(C)CCC[C@@H](C)[C@H]1CC[C@H]2[C@@H]3[C@H](O)C=C4C[C@@H](O)CC[C@]4(C)[C@H]3CC[C@]12C`?
IC50 [9]: 15 µM; CC50 [1]: > 160 µM; CC50 at 24 h [10]: 60 µM; Activity [3]: Non-toxic; CC50 (C6 [11]): ≥ 160 µM; IC50 [4]: ≥ 160 µM; Activity [6]: Non-toxic; IC50 (C6 [12]): 40 µM

With `CC(C)CCC[C@@H](C)[C@H]1CC[C@H]2[C@@H]3CC=C4[C@@H](O)[C@@H](O)CC[C@]4(C)[C@H]3CC[C@]12C` as the compound, how does the CC50 [1] read?
The CC50 was over 160 µM.

And the CC50 at 24 h [2]?
Its CC50 at 24 h is over 160 µM.

And the Activity [3]?
The Activity was “Non-toxic”.

What about the IC50 [4] of the same compound?
Its IC50 is over 160 µM.

What about the IC50 (C6 [5]) of the same compound?
The IC50 was at least 160 µM.

And the Activity [6]?
The Activity was “Non-toxic”.

And the CC50 (C6 [7])?
Its CC50 is over 160 µM.

What about the IC50 [8] of the same compound?
Its IC50 is 30 µM.

Which IC50 [9] does the source give for `CC(C)CCC[C@@H](C)[C@H]1CC[C@H]2[C@@H]3[C@@H](O)C=C4C[C@@H](O)CC[C@]4(C)[C@H]3CC[C@]12C` here?
The IC50 was 15 µM.

And the CC50 [1]?
Its CC50 is 55 µM.

And the CC50 at 24 h [10]?
The CC50 at 24 h was 15 µM.

And the Activity [3]?
The Activity was “Toxic”.

What about the CC50 (C6 [11]) of the same compound?
Its CC50 is 60 µM.

And the IC50 [4]?
The IC50 was 20 µM.

What about the viability at 24 h, 50 µM [6] of the same compound?
The viability at 24 h, 50 µM was 19.9%.

What about the IC50 (C6 [12]) of the same compound?
Its IC50 is 15 µM.

What does the source list for `CC(C)CCC[C@@H](C)[C@H]1CC[C@H]2[C@@H]3C(=O)C=C4C[C@@H](O)CC[C@]4(C)[C@H]3CC[C@]12C` [7-OXOCHOLESTEROL]?
IC50 [9]: 10 µM; CC50 [1]: 60 µM; CC50 at 24 h [10]: 30 µM; Activity [3]: Toxic; CC50 (C6 [11]): 60 µM; IC50 [4]: 20 µM; viability at 24 h, 50 µM [6]: 70.5%; IC50 (C6 [12]): 20 µM
